The values that follow come from publication PMC4506530, “Small-Molecule Inhibitors That Target Protein–Protein Interactions in the RAD51 Family of Recombinases” (Chemmedchem, 2014).

The assay has as its target HumRADA2 (Pyrococcus furiosus, UniProt O74036, D220A/DEL288-314/E219S/I169M/K221M/V202Y/Y201A). As to the kind of experiment: Isothermal titration calorimetry (ITC), direct binding to HumRADA2. Particulars: for LLE: LLE=pKD−clog P, clog P calculated with Instant JChem (ChemAxon); for KD: ITC, substituted tryptamine sulfonamide series (Table 2), error from fitting a single-site binding model; for -TDS / DG / DH: ITC thermodynamic binding profile, Table S1. The text has this: We previously published fragment-screening results using a humanised RAD51 surrogate from Pyrococcus furiosus, which we refer to as HumRADA2 (previously referred to as MAYSAM RadA).[23] In this surrogate protein, the N-terminal domain with the oligomerisation sequence was removed to monomerise the protein and expose the FxxA binding site for screening, and six surface residues were mutated around the Phe pocket in order to humanise the protein in this region.
Supplemental Experimental Procedures
C-terminal ATPase domain of P. furiosus RadA (residues 108–349, with deletion of the “L2” loop residues 288–314) was expressed in E.coli and purified as described before using ion-exchange ad size exclusion chromatographies.[1] Purified protein was concentrated to 0.5 mM, flash frozen in liquid nitrogen and stored at -80C. Protein concentration was determined by measuring absorbance at 280 nm in 6M GndHCl and using calculated absorption coefficient […]
Isothermal Titration Calorimetry
ITC experiments were performed at 25°C on a MicroCal ITC-200 (GE Healthcare).
HumRadA2 (humanized RadA) (600 µM in 20 mM MES pH 6.0 with 100 mM NaCl and 0.5 mM EDTA was diluted with Tris buffer (200 mM, pH 7.5 with 100 mM NaCl), and DMSO was added to match to the ligand solution. In titrations with ATP, 5 mM MgCl2 was included in the ligand buffer and the protein buffer. Compounds in DMSO were diluted into the same Tris buffer to give a final concentration of 0.6–10 mM ligand in 10% DMSO and Tris buffer. Care was taken to ensure that the DMSO concentrations in the protein and ligand solutions were well matched so as to avoid artefacts arising from heats of dilution of DMSO. In a typical experiment, protein (60 µM) was loaded in the sample cell, and 16 injections (2.4 µL) of 4.8 s duration were made at 80 s intervals from a syringe loaded with ligand (0.6–10 mM) and rotating at 1000 rpm. In all titrations, an initial injection of ligand (0.4 µL) was made and discarded during data analysis. Control titrations of ligand to buffer were performed and […]
The thermodynamic parameters were obtained by fitting the data to a single-site-binding model by using Origin software and fixing the stoichiometry as 1.0 for […]

Setting [1] is: substituted tryptamine series (Table 2).
Setting [2] is: tryptophan ester series (Table 1).

Where two headings read alike, the source gives them in different places.

Consider `O=S(=O)(NCCc1c[nH]c2ccccc12)c1ccc(Br)cc1` [7 c], for which binding was put at a Kd of 92 ± 22 µM. Besides, under setting [1], the LLE was 0.4 and the “LE (ligand efficiency)” value is given as 0.25 kcal mol−1 per heavy atom.
Consider `CS(=O)(=O)NCCc1c[nH]c2ccccc12` [7 i], for which the Kd is more than 200 µM and the KD entry was “No activity was detectable”.
Consider `Cl.N[C@@H](Cc1c[nH]c2ccccc12)C(=O)OCCc1ccccc1O` [5 g], for which binding was put at a Kd of 27 ± 12 µM. Further, under setting [2], the LLE was 1.5 and the “LE (ligand efficiency)” value was 0.26 kcal mol−1 per heavy atom.
As to `O=[N+]([O-])c1cccc(S(=O)(=O)NCCc2c[nH]c3ccccc23)c1` [7 e], binding was put at a Kd of 18 ± 4 µM. Further, under setting [1], the LLE is 1.9 and the “LE (ligand efficiency)” value is 0.27 kcal mol−1 per heavy atom.
`Cl.N[C@@H](Cc1c[nH]c2ccccc12)C(=O)OCCC1CCCCC1` [5 m] returned a Kd of 28 ± 9 µM. Also, under setting [2], the LLE is 0.8 and the “LE (ligand efficiency)” value turned out to be 0.27 kcal mol−1 per heavy atom.
On to `COc1ccc(CCOC(=O)[C@@H](N)Cc2c[nH]c3ccccc23)cc1` [5 k], for which the Kd was more than 200 µM.
`O=S(=O)(NCCc1c[nH]c2ccccc12)c1ccccc1Br` [7 d] displayed a dissociation constant (Kd) of 3.1 ± 0.1 µM. Besides, under setting [1], the LLE is on record as 1.8 and the “LE (ligand efficiency)” value came to 0.34 kcal mol−1 per heavy atom.
Turning to `O=S(=O)(NCCc1c[nH]c2ccccc12)c1cc(Br)c(Br)s1` [7 o], the affinity, expressed as Kd, was 67 ± 29 µM. Under setting [1], the LLE was −0.4 and the “LE (ligand efficiency)” value stood at 0.27 kcal mol−1 per heavy atom.
Regarding `O=S(=O)(Cc1ccccc1)NCCc1c[nH]c2ccccc12` [7 b], the Kd was more than 200 µM and the KD result is recorded as “No activity was detectable”.
Consider `O=S(=O)(NCCc1c[nH]c2ccccc12)c1cccs1` [7 j], for which the Kd came out at 16 ± 6 µM. Further, under setting [1], the LLE was 1.9 and the “LE (ligand efficiency)” value was 0.33 kcal mol−1 per heavy atom.
`Cc1ccc(CCOC(=O)C(N)Cc2c[nH]c3ccccc23)cc1` (stereo not drawn) [5 j] gave a Kd of 22 ± 4 µM. For the same compound, under setting [2], the LLE is given as 0.8 and the “LE (ligand efficiency)” value is reported as 0.26 kcal mol−1 per heavy atom.
For `O=C(N[C@@H](Cc1c[nH]c2ccccc12)C(=O)OCCc1ccccc1)c1cccc([N+](=O)[O-])c1` [6 c], the Kd was more than 200 µM.
With `CNC(=O)C(Cc1c[nH]c2ccccc12)NC(C)=O` (stereo not drawn) [compound 4], binding was put at a Kd of 890 ± 15 µM, the “-TDS” value was 1.6 kcal/mol, the DG was -4.2 kcal/mol and the DH was -5.8 kcal/mol. Under setting [2], the LLE is 2.6 and the “LE (ligand efficiency)” value worked out at 0.22 kcal mol−1 per heavy atom.
`Cc1ccccc1CCOC(=O)[C@@H](N)Cc1c[nH]c2ccccc12.Cl` [5 h] displayed a Kd of 30 ± 9 µM. Further, under setting [2], the LLE is reported as 0.7 and the “LE (ligand efficiency)” value is recorded as 0.26 kcal mol−1 per heavy atom.
As for `Cc1cccc(CCOC(=O)[C@@H](N)Cc2c[nH]c3ccccc23)c1.Cl` [5 i], the Kd is 30 ± 7 µM. Under setting [2], the LLE is on record as 0.7 and the “LE (ligand efficiency)” value is 0.26 kcal mol−1 per heavy atom.
The compound `O=S(=O)(NCCc1c[nH]c2ccccc12)c1ccc(Cl)s1` [7 l] showed a Kd of 13 ± 1 µM. For the same compound, under setting [1], the LLE is given as 1.3 and the “LE (ligand efficiency)” value was 0.32 kcal mol−1 per heavy atom.
Consider `COc1ccc(S(=O)(=O)NCCc2c[nH]c3ccccc23)cc1` [7 g], for which the Kd is 120 ± 10 µM. For the same compound, under setting [1], the LLE is given as 1.2 and the “LE (ligand efficiency)” value is 0.23 kcal mol−1 per heavy atom.
For the compound `Cl.N[C@@H](Cc1c[nH]c2ccccc12)C(=O)OCCc1ccccc1F` [5 f], binding was put at a Kd of 25 ± 5 µM. Moreover, under setting [2], the LLE is on record as 1.1 and the “LE (ligand efficiency)” value was 0.26 kcal mol−1 per heavy atom.
Consider `O=S(=O)(NCCc1c[nH]c2ccccc12)c1ccco1` [7 r], for which binding was characterised by a dissociation constant (Kd) of 18 ± 2 µM. Under setting [1], the LLE is on record as 2.6 and the “LE (ligand efficiency)” value was 0.32 kcal mol−1 per heavy atom.
The compound `Cl.N[C@@H](Cc1c[nH]c2ccccc12)C(=O)OCCc1c[nH]c2ccccc12` [5 n] had a Kd of 35 ± 9 µM. Further, under setting [2], the LLE was 1.0 and the “LE (ligand efficiency)” value is on record as 0.23 kcal mol−1 per heavy atom.
The compound `CC(=O)N[C@@H](Cc1c[nH]c2ccccc12)C(=O)OCCc1ccccc1F` [6 b] showed a Kd of 18 ± 1 µM. In addition, under setting [2], the LLE is given as 1.5 and the “LE (ligand efficiency)” value is given as 0.25 kcal mol−1 per heavy atom.
In the case of `Cc1noc(C)c1S(=O)(=O)NCCc1c[nH]c2ccccc12` [7 q], the Kd turned out to be 110 ± 12 µM. Further, under setting [1], the LLE is on record as 2.4 and the “LE (ligand efficiency)” value was 0.25 kcal mol−1 per heavy atom.
In the same order, the values of `O=S(=O)(NCCc1c[nH]c2ccccc12)c1ccccc1` [7 a] are 28 ± 6 µM, 1.6 and 0.30 kcal mol−1 per heavy atom.
In turn, `Nc1cccc(S(=O)(=O)NCCc2c[nH]c3ccccc23)c1` [7 f] came in with a Kd of 31 ± 6 µM. Also, under setting [1], the LLE is listed as 2.4 and the “LE (ligand efficiency)” value is on record as 0.28 kcal mol−1 per heavy atom.
The compound `Cl.N[C@@H](Cc1c[nH]c2ccccc12)C(=O)Oc1ccccc1` [5 a] had a Kd of 190 ± 5 µM. Besides, under setting [2], the LLE is reported as 0.7 and the “LE (ligand efficiency)” value is 0.24 kcal mol−1 per heavy atom.
`O=C(CCc1ccccc1)N[C@@H](Cc1c[nH]c2ccccc12)C(=O)OCCc1ccccc1` [6 e] showed a Kd of more than 200 µM.
As to `CNC(=O)C(N)Cc1c[nH]c2ccccc12` (stereo not drawn) [compound 2], binding was characterised by a dissociation constant (Kd) of 1500 ± 24 µM, the “-TDS” value turned out to be 1.3 kcal/mol, the DG was -3.8 kcal/mol and the DH is -5.1 kcal/mol. For the same compound, under setting [2], the LLE is 2.2 and the “LE (ligand efficiency)” value came out at 0.24 kcal mol−1 per heavy atom.
Consider `Nc1ncnc2c1ncn2[C@@H]1O[C@H](COP(=O)(O)OP(=O)(O)OP(=O)(O)O)[C@@H](O)[C@H]1O` [ATP, reference compound], for which the Kd (ITC against apo protein, in the absence of 5 c, read-out: KD) amounted to 2.5 µM.
`Cl.N[C@@H](Cc1c[nH]c2ccccc12)C(=O)OCc1ccccc1` [5 b] displayed a Kd of 200 ± 8 µM. Under setting [2], the LLE is 0.7 and the “LE (ligand efficiency)” value was 0.23 kcal mol−1 per heavy atom.
Consider `COC(=O)C(Cc1c[nH]c2ccccc12)NC(C)=O` (stereo not drawn) [compound 3], for which the affinity, expressed as Kd, was 810 ± 19 µM; the “-TDS” value is 0.9 kcal/mol; the DG was -4.2 kcal/mol; the DH is -5.1 kcal/mol. Moreover, under setting [2], the LLE is recorded as 2.0 and the “LE (ligand efficiency)” value amounted to 0.22 kcal mol−1 per heavy atom.
In turn, `O=S(=O)(NCCc1c[nH]c2ccccc12)c1c(Cl)sc(Cl)c1Br` [7 n] showed a Kd of 2.3 ± 0.4 µM. Further, under setting [1], the LLE is 0.6 and the “LE (ligand efficiency)” value came to 0.33 kcal mol−1 per heavy atom.
`Cl.N[C@@H](Cc1c[nH]c2ccccc12)C(=O)OCCCc1ccccc1` [5 d] returned a Kd of 160 ± 7 µM. Under setting [2], the LLE is 0.02 and the “LE (ligand efficiency)” value is 0.22 kcal mol−1 per heavy atom.
As to `O=C(NC(Cc1c[nH]c2ccccc12)C(=O)OCCc1ccccc1)C1CCCCC1` (stereo not drawn) [6 d], the Kd was more than 200 µM.

For orientation: Kd means the free concentration of one partner at which half of the binding sites on the other are occupied at equilibrium, for simple one-to-one binding.
